Experimental data reported in patent US20190343908A1, “Therapeutic Combination for the Treatment of Cancer” (Nerium Biotechnology Inc., priority 2011, published 2019).
Several values for one entry are separate records, joined by “and”; a condition that tells them apart may be missing. Equal values may be shown once.

Experiments:
[1] = test system: 22Rv1 (human prostate cancer); test: Sulforhodamine B (SRB) viability assay, 22Rv1; type: cell-based
From the text: (§1) Three different viability assays were chosen to complement each other and yielded results dependent on concentration and cell line: the Methyl Tetrazolium dye assay, the Sulforhodamine B fluorescent dye assay, and the Crystal Violet dye assay.
(§2) The Sulforhodamine B and Crystal Violet assays provide information about protein and were used to complement the Methyl-Tetrazolium dye assay. […] It is used for the quantification of cellular proteins of cultured cells. The assay using Crystal Violet, a dye that binds electrostatically to proteins and stains DNA, provides a reliable, simple assay for measuring viability of cells.
(§3) The Methyl Tetrazolium, Sulforhodamine B, and Crystal Violet assays were used to assess cell viabilities. The incubation times were 24 hours, 48 hours, and 72 hours. The Nerium oleander extract Anvirzel™ (a hot water extract of oleander obtained from Salud Integral, Honduras) was tested in concentrations ranging from 0.01 ng/mL to 10 ng/mL.
(§4) Cells were detached by trypsinization (Trypsin-0.25% EDTA, Invitrogen, 25200-072) during the logarithmic phase of culture growth and plated in 96-well plates (18.000 cells/well) (Corning, Costar 359) in a final volume of 200 μl of medium per well. […] The absorbance was measured after 24 hours, 48 hours, and 72 hours of incubation.
(§5) For the Sulforhodamine B assay, 96-well plates were fixed by 10% trichloroacetic acid (Fluka, 91228) and were incubated at 4° C. for 1 hour. Afterwards, plates were rinsed with water and cells were stained with 0.4% Sulforhodamine B (Sigma, 341738), dissolved in 1% acetic acid (Carlo Ebra, 401422) for 15 minutes at room temperature (RT). The unbound stain was washed twice with 1% acetic acid. Finally, 10 mM Tris Buffer pH 10.5 (Sigma, T6791) was added to dissolve the dye.
(§6) The optical density of each plate was measured on a μQuant spectrophotometer and the data were analyzed with Gen5 software (μQuant Biomolecular Spectrophotometer MQX200 and Gen5™ Microplate Data Collection & Analysis software, BioTek® Instruments. Inc, April 2008). Absorbance was measured at 570 nm for all assays and a second wavelength was measured in order to subtract noise. For the Methyl-Tetrazolium assay this second wavelength was 630 nm and for the Sulforhodamine B and Crystal Violet assays it was 690 nm.

[2] = test system: PANC-1 pancreatic cancer cell line; test: Sulforhodamine B viability assay, PANC-1; type: cell-based, human; parameters: key to Average SRB: absorbance (optical density) at 570 nm, second wavelength subtracted; details: for ABSORBANCE: 0.1 μg/mL cisplatin; for SRB 24 h / SRB 48 h / SRB 72 h: Run 1 average
From the text: as §1
as §2, with “of cells. […]” for “of cells.”
as §4, §5, §6

[3] = test system: MDA-MB 231 (human breast cancer); test: Crystal Violet viability assay, MDA-MB 231; type: cell-based; details: for CVE 24 h / CVE 48 h / CVE 72 h: Run 3 average
From the text: as §2, §3, §4
[…] Formalin was removed and 0.25% aqueous crystal violet (Sigma, HT901), dissolved in water, was added for 10 minutes at RT. Unbound Crystal Violet was rinsed by washing with water and finally 33% acetic acid was added to dissolve the dye.
as §6

N.N.[Cl][Pt][Cl] [cisplatin]
SRB 24 h Average ([1]; 22Rv1 Run 1, 0.1 μg/ml CDDP): 1.847
SRB 48 h Average ([1]; 22Rv1 Run 1, 0.1 μg/ml CDDP): 1.685
SRB 72 h Average ([1]; 22Rv1 Run 1, 0.1 μg/ml CDDP): 2.018
SRB 24 h Average ([1]; 22Rv1 Run 1, 1 μg/ml CDDP): 1.943
SRB 48 h Average ([1]; 22Rv1 Run 1, 1 μg/ml CDDP): 1.549
SRB 72 h Average ([1]; 22Rv1 Run 1, 1 μg/ml CDDP): 1.56
SRB 24 h Average ([1]; 22Rv1 Run 1, 10 μg/ml CDDP): 1.744
SRB 48 h Average ([1]; 22Rv1 Run 1, 10 μg/ml CDDP): 1.217
SRB 72 h Average ([1]; 22Rv1 Run 1, 10 μg/ml CDDP): 1.141
SRB 24 h Average ([1]; 22Rv1 Run 1, 100 μg/ml CDDP): 1.878
SRB 48 h Average ([1]; 22Rv1 Run 1, 100 μg/ml CDDP): 1.121
SRB 72 h Average ([1]; 22Rv1 Run 1, 100 μg/ml CDDP): 1.204
SRB 24 h Average ([1]; 22Rv1 Run 2, 0.1 μg/ml CDDP): 1.727
SRB 48 h Average ([1]; 22Rv1 Run 2, 0.1 μg/ml CDDP): 2.139
SRB 72 h Average ([1]; 22Rv1 Run 2, 0.1 μg/ml CDDP): 2.392
SRB 24 h Average ([1]; 22Rv1 Run 2, 1 μg/ml CDDP): 1.647
SRB 48 h Average ([1]; 22Rv1 Run 2, 1 μg/ml CDDP): 1.824
SRB 72 h Average ([1]; 22Rv1 Run 2, 1 μg/ml CDDP): 1.395
SRB 24 h Average ([1]; 22Rv1 Run 2, 10 μg/ml CDDP): 1.49
SRB 48 h Average ([1]; 22Rv1 Run 2, 10 μg/ml CDDP): 1.46
SRB 72 h Average ([1]; 22Rv1 Run 2, 10 μg/ml CDDP): 1.606
SRB 24 h Average ([1]; 22Rv1 Run 2, 100 μg/ml CDDP): 1.495
SRB 48 h Average ([1]; 22Rv1 Run 2, 100 μg/ml CDDP): 1.621
SRB 72 h Average ([1]; 22Rv1 Run 2, 100 μg/ml CDDP): 1.247
Average absorbance, SRB 24 h ([1]; 22Rv1 Run 3, 0.1 μg/ml CDDP): 1.352 and 0.85
ABSORBANCE ([2]; PANC-1, 48 h): 1.861
ABSORBANCE ([2]; PANC-1, 72 h): 2.536
Average SRB ([2]; PANC-1, Run 2, 24 h, 0.1 μg/ml CDDP): 1.924
Average SRB ([2]; PANC-1, Run 2, 24 h, 1 μg/ml CDDP): 2.391
Average SRB ([2]; PANC-1, Run 2, 24 h, 10 μg/ml CDDP): 2.075
Average SRB ([2]; PANC-1, Run 2, 24 h, 100 μg/ml CDDP): 1.821
Average SRB ([2]; PANC-1, Run 2, 48 h, 0.1 μg/ml CDDP): 1.505
Average SRB ([2]; PANC-1, Run 2, 48 h, 1 μg/ml CDDP): 1.549
Average SRB ([2]; PANC-1, Run 2, 48 h, 10 μg/ml CDDP): 1.106
Average SRB ([2]; PANC-1, Run 2, 48 h, 100 μg/ml CDDP): 0.752
Average SRB ([2]; PANC-1, Run 2, 72 h, 0.1 μg/ml CDDP): 2.471
Average SRB ([2]; PANC-1, Run 2, 72 h, 1 μg/ml CDDP): 2.171
Average SRB ([2]; PANC-1, Run 2, 72 h, 10 μg/ml CDDP): 1.815
Average SRB ([2]; PANC-1, Run 2, 72 h, 100 μg/ml CDDP): 1.374
Average SRB ([2]; PANC-1, Run 3, 24 h, 0.1 μg/ml CDDP): 1.881
Average SRB ([2]; PANC-1, Run 3, 24 h, 1 μg/ml CDDP): 2.008
Average SRB ([2]; PANC-1, Run 3, 24 h, 10 μg/ml CDDP): 1.74
Average SRB ([2]; PANC-1, Run 3, 24 h, 100 μg/ml CDDP): 2.087
Average SRB ([2]; PANC-1, Run 3, 48 h, 0.1 μg/ml CDDP): 1.861
Average SRB ([2]; PANC-1, Run 3, 48 h, 1 μg/ml CDDP): 1.165
Average SRB ([2]; PANC-1, Run 3, 48 h, 10 μg/ml CDDP): 0.954
Average SRB ([2]; PANC-1, Run 3, 48 h, 100 μg/ml CDDP): 0.858
Average SRB ([2]; PANC-1, Run 3, 72 h, 0.1 μg/ml CDDP): 2.536
Average SRB ([2]; PANC-1, Run 3, 72 h, 1 μg/ml CDDP): 2.281
Average SRB ([2]; PANC-1, Run 3, 72 h, 10 μg/ml CDDP): 2.07
Average SRB ([2]; PANC-1, Run 3, 72 h, 100 μg/ml CDDP): 1.584
SRB 24 h ([2]; 0.1 μg/ml CDDP): 1.369
SRB 48 h ([2]; 0.1 μg/ml CDDP): 2.223
SRB 72 h ([2]; 0.1 μg/ml CDDP): 2.191
SRB 24 h ([2]; 1 μg/ml CDDP): 1.748
SRB 48 h ([2]; 1 μg/ml CDDP): 1.748
SRB 72 h ([2]; 1 μg/ml CDDP): 1.47
SRB 24 h ([2]; 10 μg/ml CDDP): 1.597
SRB 48 h ([2]; 10 μg/ml CDDP): 1.339
SRB 72 h ([2]; 10 μg/ml CDDP): 1.435
SRB 24 h ([2]; 100 μg/ml CDDP): 1.993
SRB 48 h ([2]; 100 μg/ml CDDP): 1.53
SRB 72 h ([2]; 100 μg/ml CDDP): 1.433
CVE 24 h Average ([3]; Run 1, 0.1 μg/ml CDDP): 0.161
CVE 48 h Average ([3]; Run 1, 0.1 μg/ml CDDP): 0.939
CVE 72 h Average ([3]; Run 1, 0.1 μg/ml CDDP): 0.768
CVE 24 h Average ([3]; Run 1, 1 μg/ml CDDP): 0.124
CVE 48 h Average ([3]; Run 1, 1 μg/ml CDDP): 0.549
CVE 72 h Average ([3]; Run 1, 1 μg/ml CDDP): 0.375
CVE 48 h Average ([3]; Run 1, 10 μg/ml CDDP): 0.586
CVE 72 h Average ([3]; Run 1, 10 μg/ml CDDP): 0.416
CVE 24 h Average ([3]; Run 1, 100 μg/ml CDDP): 0.098
CVE 48 h Average ([3]; Run 1, 100 μg/ml CDDP): 0.504
CVE 72 h Average ([3]; Run 1, 100 μg/ml CDDP): 0.538
CVE 24 h Average ([3]; Run 2, 0.1 μg/ml CDDP): 0.118
CVE 48 h Average ([3]; Run 2, 0.1 μg/ml CDDP): 0.305
CVE 72 h Average ([3]; Run 2, 0.1 μg/ml CDDP): 0.485
CVE 24 h Average ([3]; Run 2, 1 μg/ml CDDP): 0.042
CVE 48 h Average ([3]; Run 2, 1 μg/ml CDDP): 0.047
CVE 72 h Average ([3]; Run 2, 1 μg/ml CDDP): 0.036
CVE 24 h Average ([3]; Run 2, 10 μg/ml CDDP): 0.125
CVE 48 h Average ([3]; Run 2, 10 μg/ml CDDP): 0.27
CVE 72 h Average ([3]; Run 2, 10 μg/ml CDDP): 0.301
CVE 24 h Average ([3]; Run 2, 100 μg/ml CDDP): 0.074
CVE 48 h Average ([3]; Run 2, 100 μg/ml CDDP): 0.062
CVE 72 h Average ([3]; Run 2, 100 μg/ml CDDP): 0.11
CVE 24 h ([3]; 0.1 μg/ml CDDP): 1.198
CVE 48 h ([3]; 0.1 μg/ml CDDP): 1.239
CVE 72 h ([3]; 0.1 μg/ml CDDP): 1.573
CVE 24 h ([3]; 1 μg/ml CDDP): 0.528
CVE 48 h ([3]; 1 μg/ml CDDP): 0.231
CVE 72 h ([3]; 1 μg/ml CDDP): 0.144
CVE 24 h ([3]; 10 μg/ml CDDP): 0.693
CVE 48 h ([3]; 10 μg/ml CDDP): 0.79
CVE 72 h ([3]; 10 μg/ml CDDP): 0.472
CVE 24 h ([3]; 100 μg/ml CDDP): 0.168
CVE 48 h ([3]; 100 μg/ml CDDP): 0.154
CVE 72 h ([3]; 100 μg/ml CDDP): 0.089
